Measurements published in patent US20240218022A1, “ANTI-VISTA MACROCYCLIC PEPTIDES AND COMPOSITIONS” (BRISTOL-MYERS SQUIBB COMPANY, priority 2022, published 2024).
pIC50: −log10 of the molar value. Positions of bridges follow the written chain, without caps; N, C: chain ends. Non-standard residues stand in square brackets, D forms with d. Residues, ends and D or L forms follow the SMILES beside them. ξ: configuration not given here. *: point of attachment. Phe(4-COOH) = N[C@@H](Cc1ccc(C(=O)O)cc1)C(=O)O; Phe(2,4-F2) = N[C@@H](Cc1ccc(F)cc1F)C(=O)O; Phe(3-Br) = N[C@@H](Cc1cccc(Br)c1)C(=O)O; Phe(3-Me) = Cc1cccc(C[C@H](N)C(=O)O)c1; 2Nal = N[C@@H](Cc1ccc2ccccc2c1)C(=O)O; Phe(2-Me) = Cc1ccccc1C[C@H](N)C(=O)O; Gly(cPent) = N[C@H](C(=O)O)C1CCCC1; Tic = O=C(O)[C@@H]1Cc2ccccc2CN1; Aad = N[C@@H](CCCC(=O)O)C(=O)O; Gly(cPr) = N[C@H](C(=O)O)C1CC1; Ahp(2) = CCCCC[C@H](N)C(=O)O; NMeNle = CCCC[C@H](NC)C(=O)O; Tle = CC(C)(C)[C@H](N)C(=O)O; Carboxymethyl = O=C(O)C*; NHexGly = CCCCCCNCC(=O)O; Nle = CCCC[C@H](N)C(=O)O; ξS = NC(CO)C(=O)O

Molecular target: T1, mouse VISTA (mVISTA) (Mus musculus, UniProt Q9D659)
T1 construct: expressed in transfected cells; host or cells: Human embryonic kidney 293T cells
T1 sequence (Q9D659 33-308): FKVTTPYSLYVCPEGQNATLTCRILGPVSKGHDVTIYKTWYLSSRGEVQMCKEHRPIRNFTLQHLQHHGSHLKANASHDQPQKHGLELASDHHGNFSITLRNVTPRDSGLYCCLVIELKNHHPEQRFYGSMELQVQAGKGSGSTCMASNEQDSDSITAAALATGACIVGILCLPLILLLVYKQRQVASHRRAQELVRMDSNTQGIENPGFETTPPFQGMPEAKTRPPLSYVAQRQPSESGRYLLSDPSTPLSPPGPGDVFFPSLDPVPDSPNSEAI
Experiment: Cell-Based Binding High-Content Assay For mVISTA (HC CBA mVISTA)
Details: read-out: HC CBA mVISTA IC50
Method in brief: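 293T cells expressing mouse VISTA, with compounds added either after seeding ("no wash") or before seeding and then washed out after 1 h. Biotinylated peptide 2 nM for 30 min at room temperature, then detection with Alexa 647–streptavidin. After fixation with Hoechst stain, plates were high-content imaged; IC50 from four-parameter logistic fit.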

SMILES | pIC50
CCCCCCN1CC(=O)N[C@@H](Cc2ccc(O)cc2)C(=O)N[C@@H](CC(C)C)C(=O)NCC(=O)N[C@@H](CCCNC(=N)N)C(=O)N2Cc3ccccc3C[C@H]2C(=O)N[C@@H](CCCCC)C(=O)N2CCC[C@H]2C(=O)N[C@@H](C(C)C)C(=O)N[C@@H](CO)C(=O)N[C@H](C(=O)NCC(N)=O)CSCC(=O)N[C@@H](Cc2ccccc2)C(=O)N[C@@H](Cc2ccc(O)cc2)C(=O)N[C@@H](CC(=O)O)C1=O [compound 1158] ({CH2CO}-FYD[NHexGly]YLGR[Tic][Ahp(2)]PVSCG-NH2; thioether N-14) | 7.95
CCCCCCN1CC(=O)N[C@@H](Cc2ccc(O)cc2)C(=O)N[C@@H](Cc2ccc(C(=O)O)cc2)C(=O)N[C@@H](CC(N)=O)C(=O)N[C@@H](CCCNC(=N)N)C(=O)N(C)[C@@H](CCCC)C(=O)N[C@@H](CCCCC)C(=O)N2CCC[C@H]2C(=O)N[C@@H](C(C)(C)C)C(=O)N[C@@H](CC(=O)O)C(=O)N[C@H](C(N)=O)CSCC(=O)N[C@@H](Cc2ccccc2)C(=O)N[C@@H](Cc2c[nH]c3ccccc23)C(=O)N[C@@H](CC(=O)O)C1=O [compound 1167] ({CH2CO}-FWD[NHexGly]Y[Phe(4-COOH)]NR[NMeNle][Ahp(2)]P[Tle]DC-NH2; thioether N-14) | 7.41
CCCCCCN1CC(=O)N[C@@H](Cc2ccc(O)cc2)C(=O)N[C@@H](Cc2ccc(OCC(=O)O)cc2)C(=O)N[C@@H](CC(N)=O)C(=O)N[C@@H](CCCNC(=N)N)C(=O)N(C)[C@@H](CCCC)C(=O)N[C@@H](CCCCC)C(=O)N2CCC[C@H]2C(=O)N[C@@H](C(C)(C)C)C(=O)N[C@@H](CC(=O)O)C(=O)N[C@H](C(N)=O)CSCC(=O)N[C@@H](Cc2ccccc2)C(=O)N[C@@H](Cc2c[nH]c3ccccc23)C(=O)N[C@@H](CC(=O)O)C1=O [compound 1168] ({CH2CO}-FWD[NHexGly]YY(Carboxymethyl)NR[NMeNle][Ahp(2)]P[Tle]DC-NH2; thioether N-14) | 7.58
CCCCCCN1CC(=O)N[C@@H](Cc2ccc(O)cc2)C(=O)N[C@@H](CCCC(=O)O)C(=O)N[C@@H](CC(N)=O)C(=O)N[C@@H](CCCNC(=N)N)C(=O)N(C)[C@@H](CCCC)C(=O)N[C@@H](CCCCC)C(=O)N2CCC[C@H]2C(=O)N[C@@H](C(C)(C)C)C(=O)N[C@@H](CC(=O)O)C(=O)N[C@H](C(N)=O)CSCC(=O)N[C@@H](Cc2ccccc2)C(=O)N[C@@H](Cc2c[nH]c3ccccc23)C(=O)N[C@@H](CC(=O)O)C1=O [compound 1169] ({CH2CO}-FWD[NHexGly]Y[Aad]NR[NMeNle][Ahp(2)]P[Tle]DC-NH2; thioether N-14) | 7.42
CCCCCCN1CC(=O)N[C@@H](Cc2ccc(O)cc2)C(=O)N[C@@H](CC(C)C)C(=O)N[C@@H](CC(N)=O)C(=O)N[C@@H](CCCNC(=N)N)C(=O)N(C)[C@@H](CCCC)C(=O)N[C@@H](CCCCC)C(=O)N2CCC[C@H]2C(=O)N[C@@H](C(C)(C)C)C(=O)N[C@@H](CO)C(=O)N[C@H](C(=O)NCC(N)=O)CSCC(=O)N[C@@H](Cc2ccccc2)C(=O)N[C@@H](Cc2cccc(Br)c2)C(=O)N[C@@H](CC(=O)O)C1=O [compound 1203] ({CH2CO}-F[Phe(3-Br)]D[NHexGly]YLNR[NMeNle][Ahp(2)]P[Tle]SCG-NH2; thioether N-14) | 7.29

The remaining lines, values ahead:

pIC50 | SMILES
7.80 | CCCCCCN1CC(=O)N[C@@H](Cc2ccc(O)cc2)C(=O)N[C@@H](CCCC)C(=O)N[C@@H](CC(N)=O)C(=O)N[C@@H](CCCNC(=N)N)C(=O)N[C@@H](CC(C)C)C(=O)N[C@@H](C2CCCC2)C(=O)N2CCC[C@H]2C(=O)N[C@@H](C(C)C)C(=O)N[C@@H](CC(=O)O)C(=O)N[C@H](C(=O)NCC(=O)O)CSCC(=O)N[C@@H](Cc2ccc3ccccc3c2)C(=O)N[C@@H](Cc2c[nH]c3ccccc23)C(=O)N[C@@H](CC(=O)O)C1=O [compound 1181] ({CH2CO}-[2Nal]WD[NHexGly]Y[Nle]NRL[Gly(cPent)]PVDCG-OH; thioether N-14)
7.63 | CCCCCCN1CC(=O)N[C@@H](Cc2ccc(O)cc2)C(=O)N[C@@H](CCCC)C(=O)N[C@@H](CC(N)=O)C(=O)N[C@@H](CCCNC(=N)N)C(=O)N[C@@H](CC(C)C)C(=O)N[C@@H](C2CC2)C(=O)N2CCC[C@H]2C(=O)N[C@@H](C(C)C)C(=O)N[C@@H](CC(=O)O)C(=O)N[C@H](C(=O)NCC(=O)O)CSCC(=O)N[C@@H](Cc2ccc3ccccc3c2)C(=O)N[C@@H](Cc2c[nH]c3ccccc23)C(=O)N[C@@H](CC(=O)O)C1=O [compound 1182] ({CH2CO}-[2Nal]WD[NHexGly]Y[Nle]NRL[Gly(cPr)]PVDCG-OH; thioether N-14)
7.35 | CCCCCCN1CC(=O)N[C@@H](Cc2ccc(O)cc2)C(=O)N[C@@H](CCCC)C(=O)N[C@@H](CC(N)=O)C(=O)N[C@@H](CCCNC(=N)N)C(=O)N(C)[C@@H](CCCC)C(=O)N[C@@H](CCCCC)C(=O)N2CCC[C@H]2C(=O)N[C@@H](C(C)C)C(=O)N[C@@H](CC(=O)O)C(=O)N[C@H](C(=O)NCC(=O)O)CSCC(=O)N[C@@H](Cc2ccc3ccccc3c2)C(=O)N[C@@H](Cc2cccc(C)c2)C(=O)N[C@@H](CC(=O)O)C1=O [compound 1200] ({CH2CO}-[2Nal][Phe(3-Me)]D[NHexGly]Y[Nle]NR[NMeNle][Ahp(2)]PVDCG-OH; thioether N-14)
7.92 | CCCCCCN1CC(=O)N[C@@H](Cc2ccc(O)cc2)C(=O)N[C@@H](CCCCC)C(=O)N[C@@H](CC(N)=O)C(=O)N[C@@H](CCCNC(=N)N)C(=O)N(C)[C@@H](CCCC)C(=O)N[C@@H](CCCCC)C(=O)N2CCC[C@H]2C(=O)N[C@@H](C(C)C)C(=O)N[C@@H](CC(=O)O)C(=O)N[C@H](C(=O)NCC(=O)O)CSCC(=O)N[C@@H](Cc2ccc3ccccc3c2)C(=O)N[C@@H](Cc2ccc(F)cc2F)C(=O)N[C@@H](CC(=O)O)C1=O [compound 1201] ({CH2CO}-[2Nal][Phe(2,4-F2)]D[NHexGly]Y[Ahp(2)]NR[NMeNle][Ahp(2)]PVDCG-OH; thioether N-14)
7.79 | CCCCCCN1CC(=O)N[C@@H](Cc2ccc(O)cc2)C(=O)N[C@@H](CCCCC)C(=O)N[C@@H](CC(N)=O)C(=O)N[C@@H](CCCNC(=N)N)C(=O)N(C)[C@@H](CCCC)C(=O)N[C@@H](CCCCC)C(=O)N2CCC[C@H]2C(=O)N[C@@H](C(C)C)C(=O)N[C@@H](CC(=O)O)C(=O)N[C@H](C(=O)NC(CO)C(=O)O)CSCC(=O)N[C@@H](Cc2ccc3ccccc3c2)C(=O)N[C@@H](Cc2ccc(F)cc2F)C(=O)N[C@@H](CC(=O)O)C1=O (some centres unmarked) [compound 1202] ({CH2CO}-[2Nal][Phe(2,4-F2)]D[NHexGly]Y[Ahp(2)]NR[NMeNle][Ahp(2)]PVDC[ξS]-OH; thioether N-14)
7.74 | CCCCCCN1CC(=O)N[C@@H](Cc2ccc(O)cc2)C(=O)N[C@@H](CC(C)C)C(=O)N[C@@H](CC(N)=O)C(=O)N[C@@H](CCCNC(=N)N)C(=O)N(C)[C@@H](CCCC)C(=O)N[C@@H](CCCCC)C(=O)N2CCC[C@H]2C(=O)N[C@@H](C(C)C)C(=O)N[C@@H](CO)C(=O)N[C@H](C(=O)NCC(N)=O)CSCC(=O)N[C@@H](Cc2ccccc2C)C(=O)N[C@@H](Cc2ccc(O)cc2)C(=O)N[C@@H](CC(=O)O)C1=O [compound 1204] ({CH2CO}-[Phe(2-Me)]YD[NHexGly]YLNR[NMeNle][Ahp(2)]PVSCG-NH2; thioether N-14)
